Measured values as given in ChEMBL document CHEMBL1201862, “PubChem BioAssay data set” (2004).
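A five-concentration, 48-hour dose response in 96-well plates underlies each endpoint, interpolated linearly between surrounding concentrations. The concentration for 50% growth inhibition is given as GI50.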 Active and inactive are the calls of the source. No stated cut-off is given here; in the data, active = GI50 up to about 1.1 µM and inactive = higher.

Tests used:
Experiment in all cases: NCI tumour cell line growth inhibition, 48 h
HCT-116 = test system: HCT-116
NCI-H226 = test system: NCI-H226
U-251 = test system: U-251
SNB-75 = test system: SNB-75
ACHN = test system: ACHN
RXF 393 = test system: RXF 393
SF-295 = test system: SF-295
CCRF-CEM = test system: CCRF-CEM
UACC-257 = test system: UACC-257
SK-MEL-5 = test system: SK-MEL-5
IGROV-1 = test system: IGROV-1
SK-MEL-28 = test system: SK-MEL-28
Malme-3M = test system: Malme-3M
UACC-62 = test system: UACC-62
OVCAR-4 = test system: OVCAR-4
A498 = test system: A498

Row | SMILES | GI50 (HCT-116) | GI50 (NCI-H226) | GI50 (U-251) | GI50 (SNB-75) | GI50 (ACHN) | GI50 (RXF 393) | GI50 (SF-295) | GI50 (CCRF-CEM) | GI50 (UACC-257) | GI50 (SK-MEL-5) | GI50 (IGROV-1) | GI50 (SK-MEL-28) | GI50 (Malme-3M) | GI50 (UACC-62) | GI50 (OVCAR-4) | GI50 (A498)
1 | Cc1ccccc1NC(=O)c1cc2cc(/N=N/c3ccccc3C(=O)O)ccc2oc1=O | 20.7 µM (inactive) | 20.8 µM (inactive) | 21.4 µM (inactive) | 11.5 µM (inactive) | 33.3 µM (inactive) | 17.4 µM (inactive) | 18.5 µM (inactive) | 19.7 µM (inactive) | 10.3 µM (inactive) | 14.5 µM (inactive) | 25 µM (inactive) | 13.5 µM (inactive) | 6.75 µM (inactive) | 4.7 µM (inactive) | – | –
2 | CCCCOC(=O)NC(=O)c1cn(C2CCCCC2)c(=O)[nH]c1=O | 21.5 µM (inactive) | 20.3 µM (inactive) | 28.4 µM (inactive) | – | 32.2 µM (inactive) | – | 54.3 µM (inactive) | > 100 µM (inactive) | > 100 µM (inactive) | – | 39.2 µM (inactive) | 39.8 µM (inactive) | 31 µM (inactive) | 47.2 µM (inactive) | 21.8 µM (inactive) | 17.1 µM (inactive)
3 | COc1ccccc1-n1c(N)c2c(C)c(-c3ccccc3)[nH]c2nc1=S | > 100 µM (inactive) | 63 µM (inactive) | 54.3 µM (inactive) | 59.3 µM (inactive) | > 100 µM (inactive) | – | – | > 100 µM (inactive) | > 100 µM (inactive) | 4.76 µM (inactive) | – | > 100 µM (inactive) | 91.8 µM (inactive) | 77.1 µM (inactive) | > 100 µM (inactive) | > 100 µM (inactive)
4 | S=C(N/N=C/c1ccco1)NC12CC3CC(CC(C3)C1)C2 | > 100 µM (inactive) | > 100 µM (inactive) | 73.8 µM (inactive) | 83.8 µM (inactive) | > 100 µM (inactive) | > 100 µM (inactive) | > 100 µM (inactive) | 54.2 µM (inactive) | 32.2 µM (inactive) | 73.8 µM (inactive) | > 100 µM (inactive) | > 100 µM (inactive) | > 100 µM (inactive) | 29.9 µM (inactive) | 65.3 µM (inactive) | > 100 µM (inactive)
5 | Cc1ccc(S(=O)(=O)OCC23CCC(CC2)C2CC23)cc1 (centres undefined) | 53.8 µM (inactive) | 61.2 µM (inactive) | 50.9 µM (inactive) | 3.62 µM (inactive) | 61.7 µM (inactive) | – | 35.1 µM (inactive) | 39.7 µM (inactive) | 28.6 µM (inactive) | 24 µM (inactive) | > 100 µM (inactive) | 96.6 µM (inactive) | 48.8 µM (inactive) | > 100 µM (inactive) | 46 µM (inactive) | 43.3 µM (inactive)
6 | O=C(O)C1=C(C(=O)Nc2ccc(NC(=O)C3=C(C(=O)O)C4C=CC3C4)cc2)C2C=CC1C2 | > 100 µM (inactive) | – | > 100 µM (inactive) | > 100 µM (inactive) | > 100 µM (inactive) | > 100 µM (inactive) | > 100 µM (inactive) | > 100 µM (inactive) | > 100 µM (inactive) | > 100 µM (inactive) | > 100 µM (inactive) | > 100 µM (inactive) | > 100 µM (inactive) | > 100 µM (inactive) | > 100 µM (inactive) | > 100 µM (inactive)
7 | CCc1cccc(C)c1NC(=O)CC1C(=O)Nc2ccccc2[S+]1[O-] (centres undefined) | 35.8 µM (inactive) | > 100 µM (inactive) | 18.7 µM (inactive) | 33.5 µM (inactive) | 71.6 µM (inactive) | – | 32.1 µM (inactive) | – | 31.8 µM (inactive) | – | – | 73.1 µM (inactive) | 28.5 µM (inactive) | – | 28.3 µM (inactive) | –
8 | CC1=C(C(=O)CC(=O)C(=O)NC2C3CC4CC(C3)CC2C4)Sc2ccccc2N1 (centres undefined) | – | – | > 100 µM (inactive) | > 100 µM (inactive) | > 100 µM (inactive) | > 100 µM (inactive) | > 100 µM (inactive) | – | > 100 µM (inactive) | > 83.6 µM (inactive) | > 100 µM (inactive) | > 100 µM (inactive) | > 100 µM (inactive) | > 100 µM (inactive) | > 100 µM (inactive) | > 100 µM (inactive)
9 | Cc1ccc(NC(=O)CC2C(=O)Nc3ccccc3[S+]2[O-])c(C)c1 (centres undefined) | 8.69 µM (inactive) | 16.2 µM (inactive) | 10.8 µM (inactive) | 11.7 µM (inactive) | 21 µM (inactive) | 8.61 µM (inactive) | 12.8 µM (inactive) | 11.5 µM (inactive) | 50.8 µM (inactive) | 4.11 µM (inactive) | 12.8 µM (inactive) | 15.8 µM (inactive) | 18.4 µM (inactive) | 7.23 µM (inactive) | 17.3 µM (inactive) | 18.9 µM (inactive)
10 | CNc1nnnn1C1OC(CO)C(O)C1O (centres undefined) | > 100 µM (inactive) | > 100 µM (inactive) | > 100 µM (inactive) | > 100 µM (inactive) | > 100 µM (inactive) | 43.9 µM (inactive) | > 100 µM (inactive) | > 100 µM (inactive) | > 100 µM (inactive) | > 100 µM (inactive) | > 100 µM (inactive) | – | > 100 µM (inactive) | > 100 µM (inactive) | – | > 100 µM (inactive)
11 | Cc1nc2c(n1Cc1ccc(Cl)cc1)C(=O)c1ccccc1C2=O | 2.6 µM (inactive) | > 75 µM (inactive) | 3.48 µM (inactive) | 19.9 µM (inactive) | 27 µM (inactive) | 33.9 µM (inactive) | 11 µM (inactive) | 4.67 µM (inactive) | > 75 µM (inactive) | 16.4 µM (inactive) | > 75 µM (inactive) | > 75 µM (inactive) | 35.6 µM (inactive) | 3.36 µM (inactive) | > 75 µM (inactive) | –
12 | Cc1noc2cccc(OCc3ccccc3)c12 | 48.1 µM (inactive) | 46.5 µM (inactive) | 93.8 µM (inactive) | 30.6 µM (inactive) | 50.7 µM (inactive) | 30.8 µM (inactive) | 72.4 µM (inactive) | 13.5 µM (inactive) | 53.8 µM (inactive) | 17.1 µM (inactive) | 60.1 µM (inactive) | > 100 µM (inactive) | > 100 µM (inactive) | > 100 µM (inactive) | 82.8 µM (inactive) | –
13 | COc1cccc(NC(=O)/C(Cc2nc3ccccc3nc2C)=N/NC(=O)C[n+]2ccccc2)c1 | 67.1 µM (inactive) | > 100 µM (inactive) | 17.7 µM (inactive) | > 100 µM (inactive) | > 100 µM (inactive) | – | > 100 µM (inactive) | 51.5 µM (inactive) | 45.4 µM (inactive) | > 100 µM (inactive) | > 100 µM (inactive) | > 100 µM (inactive) | > 100 µM (inactive) | > 100 µM (inactive) | > 100 µM (inactive) | > 100 µM (inactive)
14 | C/C(CC(=O)Nc1ccc(Cl)c(Cl)c1)=N/NC(=O)C[N+](C)(C)C | > 100 µM (inactive) | > 100 µM (inactive) | – | > 100 µM (inactive) | > 100 µM (inactive) | > 100 µM (inactive) | > 100 µM (inactive) | > 100 µM (inactive) | > 100 µM (inactive) | > 100 µM (inactive) | > 100 µM (inactive) | 0.194 µM (active) | > 100 µM (inactive) | > 100 µM (inactive) | > 100 µM (inactive) | > 100 µM (inactive)
15 | CCN(CC)C(=O)CC12CCCCC1=Nc1ccccc12 (centres undefined) | > 100 µM (inactive) | – | > 100 µM (inactive) | > 100 µM (inactive) | > 100 µM (inactive) | – | > 100 µM (inactive) | > 100 µM (inactive) | > 100 µM (inactive) | > 100 µM (inactive) | > 100 µM (inactive) | > 100 µM (inactive) | > 100 µM (inactive) | > 100 µM (inactive) | > 100 µM (inactive) | > 100 µM (inactive)
16 | Cn1ccnc1Cn1cc(-c2cccc(-c3cn[nH]c3)c2)cn1 | 50.7 µM (inactive) | – | 84.5 µM (inactive) | 23.2 µM (inactive) | 28.1 µM (inactive) | 24.8 µM (inactive) | > 100 µM (inactive) | 58.5 µM (inactive) | > 100 µM (inactive) | > 100 µM (inactive) | – | > 100 µM (inactive) | – | 9.23 µM (inactive) | 55.2 µM (inactive) | 38.1 µM (inactive)
17 | O=[N+]([O-])c1ccc2nc(/C(=N/Nc3ccccc3)C(O)c3ccc(Cl)cc3Cl)c(O)nc2c1 (centres undefined) | > 100 µM (inactive) | > 100 µM (inactive) | > 100 µM (inactive) | > 100 µM (inactive) | > 100 µM (inactive) | > 100 µM (inactive) | > 100 µM (inactive) | 22.3 µM (inactive) | > 100 µM (inactive) | 21.8 µM (inactive) | > 100 µM (inactive) | – | > 100 µM (inactive) | 48.5 µM (inactive) | > 100 µM (inactive) | > 100 µM (inactive)
18 | O=C1C(c2ccc([N+](=O)[O-])cc2)=[N+]([O-])c2ccccc21 | 25.8 µM (inactive) | 34.9 µM (inactive) | 16.5 µM (inactive) | 30.6 µM (inactive) | 16.8 µM (inactive) | 23.3 µM (inactive) | 42.1 µM (inactive) | 22.9 µM (inactive) | – | 16.3 µM (inactive) | 43.3 µM (inactive) | 29.3 µM (inactive) | 36.6 µM (inactive) | 19.2 µM (inactive) | 9.51 µM (inactive) | –
19 | COC(=O)[C@H]1[C@H]2C[C@@H]3c4[nH]c5cc(OC)ccc5c4CCN3C[C@H]2C[C@@H](OC(=O)c2cc(OC)c(OC)c(OC)c2)[C@@H]1OC [RESERPINE] | 13.7 µM (inactive) | 19.6 µM (inactive) | 15 µM (inactive) | 2.7 µM (inactive) | 15 µM (inactive) | – | 17.7 µM (inactive) | 13.2 µM (inactive) | 15.6 µM (inactive) | 15.7 µM (inactive) | 21.5 µM (inactive) | > 10 µM (inactive) | 17.5 µM (inactive) | 13.3 µM (inactive) | 12.7 µM (inactive) | –
